Experimental data published in patent US9657014B2, “Substituted 1,6-naphthyridines” (Hoffmann-La Roche Inc., priority 2012, dated 2017).

Test system: human embryonic stem cell derived neural stem cells (NSCs)
Assay: Neural stem cell proliferation assay (neurogenesis assay)
Assay type: cell-based
Details: Homo sapiens, Neural stem cell, 96 h; Table 1, novel compounds; concentration at which 150% activity of control (100%) is reached; ATP levels (CellTiterGlo) after 4 days incubation
Method: Neural Stem Cell Proliferation Assay
Neurogenic properties of small molecules are determined based on the proliferation of human embryonic stem cell derived neural stem cells (NSCs) which were derived via a dual smad inhibition as previously described (Chambers, S. M., et al., Highly efficient neural conversion of human ES and iPS cells by dual inhibition of SMAD signaling, Nature biotechnology, 2009. 27 (3): p. 275-80.)
Compounds respond is measured by the increase in cells based on ATP levels (Promega:CellTiterGlo®) after an incubation period of 4 days.
NSCs are thawed and expanded over 3 passages. On the 14th day, NSCs are seeded in Polyornithin/Laminin coated 384 well plates at a cell density of 21,000 cells/cm^2 in a media volume of 38 μl.
4 hours after cell seeding, compound solutions are added at a volume of 2 μl. Stock solutions of the compounds (water, 5% DMSO) are diluted to obtain a dose response (11 points, dilution factor is 2), ranging from 8 μM to 8 nM. Controls are run to consistently determine the neurogenic properties of the cells:
Negative (neutral) control is cell culture Media (final DMSO concentration: 0.25%).
Positive controls are: • 1. cell culture Media+100 ng/ml FGF2 (final DMSO concentration: 0.1%) • 2. cell culture Media+20 ng/ml EGF (final DMSO concentration: 0.1%) • 3. cell culture Media+100 ng/ml Wnt3a (final DMSO concentration: 0.1%)
After 4 days incubation at 37° C., 5% CO2, the amount of ATP per well is quantified. The ATP concentration is proportional to the cell number. ATP is quantified by using the Promega CellTiterGlo® kit. The CellTiterGlo® reagents contain a cell lysis buffer, a thermo stable luciferase (UltraGlo™ recombinant luciferase), magnesium and luciferin. Luciferin reacts with ATP producing oxyluciferin, AMP and light. The luminescence signal is proportional to the ATP content.
The value of negative (neutral) control is determined for each assay plate by taking the average of 16 negative control wells. The neurogenic compound response is calculated for each compound as (compound/Negative Control)*100.
The values of EC150 from the dose response curve are determined for each test compound. The EC150 is the compound concentration at which 150% activity of control (100%) is reached.

Compound	EC (150% of control) [µM]
O=C(c1ccc2cncc(-c3ccc(Cl)cc3)c2n1)N1CCOCC1 [Example 57, (8-(4-Chlorophenyl)-1,6-naphthyridin-2-yl)(morpholino)methanone]	0.17
CC(C)(C)OC(=O)N1CCN(C(=O)c2ccc3cncc(-c4ccc(Cl)cc4)c3n2)CC1 [Example 58, tert-Butyl 4-(8-(4-chlorophenyl)-1,6-naphthyridine-2-carbonyl)piperazine-1-carboxylate]	1.1
O=C(NN1CCCCC1)c1ccc2cncc(-c3ccc(Cl)cc3)c2n1 [Example 59, 8-(4-Chlorophenyl)-N-(piperidin-1-yl)-1,6-naphthyridine-2-carboxamide]	1.48
O=C(NC1CCOC1)c1ccc2cncc(-c3ccc(Cl)cc3)c2n1 (stereo not shown) [Example 60, 8-(4-Chlorophenyl)-N-(tetrahydrofuran-3-yl)-1,6-naphthyridine-2-carboxamide]	0.15
O=C(c1ccc2cncc(-c3ccc(Cl)cc3)c2n1)N1CCNCC1 [Example 61, (8-(4-Chlorophenyl)-1,6-naphthyridin-2-yl)(piperazin-1-yl)methanone]	3.15
CC1(CNC(=O)c2ccc3cncc(-c4ccc(Cl)cc4)c3n2)CCC(=O)N1 (stereo not shown) [Example 62, 8-(4-Chlorophenyl)-N-((2-methyl-5-oxopyrrolidin-2-yl)methyl)-1,6-naphthyridine-2-carboxamide]	0.01
O=C(NCC(F)(F)F)c1ccc2cncc(-c3ccc(Cl)cc3)c2n1 [Example 63, 8-(4-Chlorophenyl)-N-(2,2,2-trifluoroethyl)-1,6-naphthyridine-2-carboxamide]	0.23
O=C(NCCC(F)(F)F)c1ccc2cncc(-c3ccc(Cl)cc3)c2n1 [Example 64, 8-(4-Chlorophenyl)-N-(3,3,3-trifluoropropyl)-1,6-naphthyridine-2-carboxamide]	0.15
O=C(NC1CC1)c1ccc2cncc(-c3ccc(Cl)cc3)c2n1 [Example 65, 8-(4-Chlorophenyl)-N-cyclopropyl-1,6-naphthyridine-2-carboxamide]	0.08
CN(CC1CC1)C(=O)c1ccc2cncc(-c3ccc(Cl)cc3)c2n1 [Example 66, 8-(4-Chlorophenyl)-N-(cyclopropylmethyl)-N-methyl-1,6-naphthyridine-2-carboxamide]	0.7
O=C(NCC1CC1)c1ccc2cncc(-c3ccc(Cl)cc3)c2n1 [Example 67, 8-(4-Chlorophenyl)-N-(cyclopropylmethyl)-1,6-naphthyridine-2-carboxamide]	0.01
CC(C)(C)CNC(=O)c1ccc2cncc(-c3ccc(Cl)cc3)c2n1 [Example 68, 8-(4-Chlorophenyl)-N-neopentyl-1,6-naphthyridine-2-carboxamide]	0.07
CC(C)(C)NC(=O)c1ccc2cncc(-c3ccc(Cl)cc3)c2n1 [Example 69, N-tert-Butyl-8-(4-chlorophenyl)-1,6-naphthyridine-2-carboxamide]	0.32
CC(C)NC(=O)c1ccc2cncc(-c3ccc(Cl)cc3)c2n1 [Example 70, 8-(4-Chlorophenyl)-N-isopropyl-1,6-naphthyridine-2-carboxamide]	0.6
CC(C)(CO)NC(=O)c1ccc2cncc(-c3ccc(Cl)cc3)c2n1 [Example 71, 8-(4-Chlorophenyl)-N-(1-hydroxy-2-methylpropan-2-yl)-1,6-naphthyridine-2-carboxamide]	1.06
CS(=O)(=O)CCNC(=O)c1ccc2cncc(-c3ccc(Cl)cc3)c2n1 [Example 72, 8-(4-Chlorophenyl)-N-(2-(methylsulfonyl)ethyl)-1,6-naphthyridine-2-carboxamide]	0.1
CN1CCN(C(=O)c2ccc3cncc(-c4ccc(Cl)cc4)c3n2)CC1 [Example 73, (8-(4-Chlorophenyl)-1,6-naphthyridin-2-yl)(4-methylpiperazin-1-yl)methanone]	0.64
O=C(c1ccc2cncc(-c3ccc(Cl)cc3)c2n1)N1CCS(=O)(=O)CC1 [Example 74, [8-(4-Chloro-phenyl)-[1,6]naphthyridin-2-yl]-(1,1-dioxo-thiomorpholin-4-yl)-methanone]	1.68
O=C(c1ccc2cncc(-c3ccc(Cl)cc3)c2n1)N1CCC(O)C1 (stereo not shown) [Example 75, (8-(4-Chlorophenyl)-1,6-naphthyridin-2-yl)(3-hydroxypyrrolidin-1-yl)methanone]	0.4
N#CC1(NC(=O)c2ccc3cncc(-c4ccc(Cl)cc4)c3n2)CC1 [Example 76, 8-(4-Chlorophenyl)-N-(1-cyanocyclopropyl)-1,6-naphthyridine-2-carboxamide]	1.84

Compound	EC (150% of control) [µM]
NC(=O)c1ccc2cncc(-c3ccc(F)cc3)c2n1 [Example 77, 8-(4-Fluorophenyl)-1,6-naphthyridine-2-carboxamide]	0.09
NC(=O)c1ccc2cncc(-c3cccc(F)c3)c2n1 [Example 78, 8-(3-Fluorophenyl)-1,6-naphthyridine-2-carboxamide]	0.05
NC(=O)c1ccc2cncc(-c3ccccc3F)c2n1 [Example 79, 8-(2-Fluorophenyl)-1,6-naphthyridine-2-carboxamide]	0.03
Cc1ccc(-c2cncc3ccc(C(N)=O)nc23)cc1 [Example 80, 8-Tolyl-1,6-naphthyridine-2-carboxamide]	0.03
Cc1cccc(-c2cncc3ccc(C(N)=O)nc23)c1 [Example 81, 8-m-Tolyl-1,6-naphthyridine-2-carboxamide]	0.05
Cc1ccccc1-c1cncc2ccc(C(N)=O)nc12 [Example 82, 8-o-Tolyl-1,6-naphthyridine-2-carboxamide]	2.05
NC(=O)c1ccc2cncc(-c3ccc(F)c(F)c3)c2n1 [Example 83, 8-(3,4-Difluorophenyl)-1,6-naphthyridine-2-carboxamide]	0.1
NC(=O)c1ccc2cncc(-c3cc(F)c(F)c(F)c3)c2n1 [Example 84, 8-(3,4,5-Trifluorophenyl)-1,6-naphthyridine-2-carboxamide]	0.25
N#Cc1ccc(-c2cncc3ccc(C(N)=O)nc23)cc1 [Example 85, 8-(4-Cyanophenyl)-1,6-naphthyridine-2-carboxamide]	0.05
CS(=O)(=O)c1ccc(-c2cncc3ccc(C(N)=O)nc23)cc1 [Example 86, 8-(4-(Methylsulfonyl)phenyl)-1,6-naphthyridine-2-carboxamide]	0.03
CS(=O)(=O)c1cccc(-c2cncc3ccc(C(N)=O)nc23)c1 [Example 87, 8-(3-(Methylsulfonyl)phenyl)-1,6-naphthyridine-2-carboxamide]	0.79
CS(=O)(=O)c1ccccc1-c1cncc2ccc(C(N)=O)nc12 [Example 88, 8-(2-(Methylsulfonyl)phenyl)-1,6-naphthyridine-2-carboxamide]	0.5
COc1ccc(-c2cncc3ccc(C(N)=O)nc23)cn1 [Example 89, 8-(6-Methoxypyridin-3-yl)-1,6-naphthyridine-2-carboxamide]	0.09
Cc1cc(-c2cncc3ccc(C(N)=O)nc23)ccn1 [Example 90, 8-(2-Methylpyridin-4-yl)-1,6-naphthyridine-2-carboxamide]	0.17
NC(=O)c1ccc2cncc(-c3ccc4c(c3)OCO4)c2n1 [Example 91, 8-(Benzo[d][1,3]dioxol-5-yl)-1,6-naphthyridine-2-carboxamide]	0.03
NC(=O)c1ccc2cncc(-c3ccc4c(c3)OCCO4)c2n1 [Example 92, 8-(2,3-Dihydrobenzo[b][1,4]dioxin-6-yl)-1,6-naphthyridine-2-carboxamide]	0.03
NC(=O)c1ccc2cncc(-c3cccc(N4CCOCC4)c3)c2n1 [Example 93, 8-(3-Morpholinophenyl)-1,6-naphthyridine-2-carboxamide]	0.21
NC(=O)c1ccc2cncc(-c3ccc(N4CCOCC4)cc3)c2n1 [Example 94, 8-(4-Morpholinophenyl)-1,6-naphthyridine-2-carboxamide]	0.01
NC(=O)c1ccc2cncc(-c3ccc(OC(F)(F)F)cc3)c2n1 [Example 95, 8-(4-(Trifluoromethoxy)phenyl)-1,6-naphthyridine-2-carboxamide]	0.05
O=C(NCc1ccncn1)c1ccc2cncc(-c3ccc(Cl)cc3)c2n1 [Example 96, 8-(4-Chlorophenyl)-N-(pyrimidin-4-ylmethyl)-1,6-naphthyridine-2-carboxamide]	0.17
